Measurements reported in PMC8909107, “Imaging Kv1.3 Expressing Memory T Cells as a Marker of Immunotherapy Response” (Cancers, 2022).
Bridges are numbered along the chain shown (N, C = ends). Where no end group is shown, it is not given here. The star is where a group is joined. NOTA = O=C(O)CN1CCN(CC(=O)O)CCN(CC(=O)*)CC1

Legend:
[1] = biological target: T1, KV1.3 channels (L929 fibroblasts stably expressing KV1.3) (Mus musculus, UniProt P16390); experiment: Patch-clamp (QPatch HTX), run-down of Kv1.3 currents after overnight exposure; type: cell-based; conditions: L929-KV1.3 cells, overnight exposure 0.1, 1 or 10 μM; current density (pA/pF) at pulses 18-20 normalized to control; n = 13; read-out: IC50 (50% suppression) from normalized current density
T1 construct: expressed in transfected cells
T1 sequence (P16390 whole entry): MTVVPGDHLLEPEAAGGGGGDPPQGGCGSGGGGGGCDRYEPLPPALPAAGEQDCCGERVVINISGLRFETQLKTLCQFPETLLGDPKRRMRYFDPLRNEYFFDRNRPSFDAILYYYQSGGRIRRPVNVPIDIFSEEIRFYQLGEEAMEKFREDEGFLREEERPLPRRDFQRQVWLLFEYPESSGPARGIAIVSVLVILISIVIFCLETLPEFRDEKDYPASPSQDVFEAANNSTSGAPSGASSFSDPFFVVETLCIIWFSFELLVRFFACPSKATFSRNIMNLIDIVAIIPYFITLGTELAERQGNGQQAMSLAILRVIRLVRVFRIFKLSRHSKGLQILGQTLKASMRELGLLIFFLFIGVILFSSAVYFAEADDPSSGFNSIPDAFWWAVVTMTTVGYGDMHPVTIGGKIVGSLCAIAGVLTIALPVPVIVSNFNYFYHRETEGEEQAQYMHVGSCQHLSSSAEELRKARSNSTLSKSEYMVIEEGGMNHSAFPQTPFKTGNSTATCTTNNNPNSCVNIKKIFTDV
Description: The effects of the peptides NOTA-KCNA3P and EgK5 on KV1.2, KV1.3 and KV1.5 [19] channels were evaluated by patch-clamp as detailed in the Supplementary Materials (Supplementary Figure S3) using a QPatch HTX automated electrophysiology platform.
We used patch-clamp analysis to determine if NOTA-KCNA3P modulates Kv1.3 channels such as EgK5. We exposed L929 fibroblasts stably expressing KV1.3 channels overnight to NOTA-KCNA3P (0.1, 1 or 10 μM) or EgK5 (10 μM) dissolved in P6N buffer, or to media containing an equal volume of P6N buffer. […] Concentration–response curves generated with either normalized current amplitude or normalized current density yielded IC50 (50% suppression) values of […] and 50 nM, respectively, for NOTA-KCNA3P (Supplementary Figure S3D,E). […]
[18F]AlF-NOTA-KCNA3P was between 8.2 - 8.3 min. […] The radiochemical purity of [18F]AlF-NOTA-KCNA3P was assessed by analytical radio-HPLC (Aeris™ 5µm PEPTIDE XB-C18, 100 Å, 250 x 4.6 mm; 1 ml / min, λ = 220 nm). […]
NOTA-KCNA3P and EgK5 were prepared as 1-10 mM stock solutions in P6N buffer (10 mM sodium phosphate, 0.8% w/v, NaCl, and 0.05% v/v Tween 20, pH 6), diluted with 0.1% (w/v) BSA in external buffer. The effects of peptides on KV1.2, KV1.3 and KV1.5[1] channels were evaluated by patch-clamp using a QPatch HTX automated electrophysiol-ogy platform (Sophion, Denmark) (Supplementary Figure S3). […]

[2] = type: in vivo, BalbC mice bearing CT26 tumours
Description: (§1) Mice were imaged under isoflurane anaesthesia and injected with [^18F]AlF-NOTA-KCNA3P (~10 MBq) via the lateral tail vein. Dynamic time–activity curves were acquired to assess tracer uptake and clearance profiles (Supplementary Figure S4) and tail vein blood samples taken to assess in vivo metabolic stability (Supplementary Figure S7). To stratify response to therapy, animals were imaged on day 12 using a Siemens Inveon PET-CT as previously described. Briefly, 20 min static PET acquisitions were acquired from 60 min post-injection and analysis of the reconstructed calibrated images was performed and volumes of interest delineated by CT imaging were used to determine tissue uptake (whole body distribution shown for reference in Supplementary Figure S8). Data are expressed as % of the injected dose per gram (%ID/g) of tumour tissue in the volume of interest.
Tumour uptake of [^18F]AlF-NOTA-KCNA3P was heterogeneous depending on treatment regime and treatment efficacy (Figure 3A) with a tumour-to-blood ratio (TBR) of ~2 in tumour responders and a TBR of ~1 in tumour non-responders (TNRs). Low tumour uptake of [^18F]AlF-NOTA-KCNA3P was measured in the TNRs and the control treatment arm. […] Tumour uptake of [^18F]AlF-NOTA-KCNA3P was sufficient to distinguish from background and differentiated responsive tumours from treated non-responders (Table 1 and Figure 3B,C) in vivo. Ex vivo biodistribution was used to confirm the imaging results (Supplementary Figure S5). Importantly, no difference was seen between non-responders and responders in the biodistribution of [^18F]AlF-NOTA-KCNA3P in muscle, blood, lung, skin, heart and brain, the only difference being in the tumour (Supplementary Figure S5). […]
1.7 In vivo biodistribution of [18F]AlF-NOTA-KCNA3P
The biodistribution of [18F]AlF-NOTA-KCNA3P was assessed in BalbC mice bearing CT26 tumours treated with combined PD-1 and CTLA4 therapy. The animals were im-aged dynamically for 120 minutes and the distribution and excretion characteristics as- […]
the kidneys and hepatobiliary routes (Supplementary Figure S4). Blood clearance is […]
Supplementary Figure S5. Ex vivo biodistribution analysis of [18F]AlF-NOTA-KCNA3P retention in selected organs. ICI treated responder (TR, black) and treated non responder (TNR, white) animals were sacrificed 80min post-injection, tissues excised, weighed and radioactivity quantified using a Wallac gamma counter. Bars represent the mean of 5 animals ± SEM, * P<0.05.
1.9 Western blot analysis of Kv1.3 […]
The following anti- […]
bodies were used: anti-Kv1.3 KCNA3 (APC-101, Alomone) and anti-GAPDH (SC-47724, […]
Supplementary Figure S6. […]

[3] = parameters: species or system mice; conditions: in vivo, ~20MBq i.v., blood samples at 0, 30, 60 and 120 min p.i., radioHPLC, over 120 minutes
Text: as §1, with “Briefly, 20 min static PET acquisitions were acquired from 60 min post-injection and analysis of the reconstructed calibrated images was performed and volumes of interest delineated by CT imaging were used to determine tissue uptake (whole body distribution shown for reference in Supplementary Figure S8).” left out
Supplementary Figure S5. […] ICI treated responder (TR, black) and treated non responder (TNR, white) animals were sacrificed 80min post-injection, tissues excised, weighed and radioactivity quantified using a Wallac gamma counter. […]
Tumour Kv1.3 expression on infiltrating lymphocytes (TILs) were quantified using standard western blotting procedures as previously described. […]
An equal amount of 10% sulfosalicylic acid was added to the supernatant plasma samples and vortexed to precipitate out remaining proteins. The samples were centrifuged at 2,500 x g for 5 min at 4 °C, and the supernatant analyzed via radioHPLC. […]

[4] = PET-CT tumour retention of the tracer after ICI treatment; type: in vivo, BALB/c mice; conditions: BALB/c, mouse, CT26 tumour, iv, 10 MBq, total radioactivity, PET-CT day 12, 20 min static from 60 min post-injection, ~10 MBq i.v., mean ± SD
Text: All animal procedures strictly followed IACUC guidelines (IACUC No. 181399) and conformed to NIH guidelines and public law. Development of the animal model has been described previously. Briefly, BALB/c mice aged 6–8 weeks were purchased from In Vivos (Singapore) and implanted subcutaneously into the right shoulder with the murine colon cancer cell line CT26 (ATCC, 2 × 10^5 cells per animal 1:1 (v:v) ratio in Matrigel). Tumour volumes were repeatedly measured on days 6, 9, 12, 15, 19 and 21 post tumour implantation. The mice were randomised and dosed by intraperitoneal (i.p.) injection on days 6, 9 and 12 following tumour inoculation. Treatment groups included control (5 mg/kg, rat IgG2a isotype control, α-trinitrophenol mAb, IP), αPD1 mAb monotherapy (10 mg/kg, rat IgG2a anti-mouse PD-1, RMP1-14) and combined αPD1 and αCTLA4 mAb therapy (10 mg/kg and 5 mg/kg, respectively, mouse IgG2b anti-mouse CTLA-4, 9D9, Bio-X Cell).
as §1
Tumour uptake of [^18F]AlF-NOTA-KCNA3P was heterogeneous depending on treatment regime and treatment efficacy (Figure 3A) with a tumour-to-blood ratio (TBR) of ~2 in tumour responders and a TBR of ~1 in tumour non-responders (TNRs). Low tumour uptake of [^18F]AlF-NOTA-KCNA3P was measured in the TNRs and the control treatment arm. […] Tumour uptake of [^18F]AlF-NOTA-KCNA3P was sufficient to distinguish from background and differentiated responsive tumours from treated non-responders (Table 1 and Figure 3B,C) in vivo. Ex vivo biodistribution was used to confirm the imaging results (Supplementary Figure S5). Importantly, no difference was seen between non-responders and responders in the biodistribution of [^18F]AlF-NOTA-KCNA3P in muscle, blood, lung, skin, heart and brain, the only difference being in the tumour (Supplementary Figure S5).

Row | Substance | IC50 [1] [nM] | Blood clearance ([2]; dynamic PET 120 minutes) | muscle uptake ([2]; dynamic PET 120 minutes) | excretion profile ([2]; dynamic PET 120 minutes, CT26 tumour mice treated with combined PD-1 and CTLA4 therapy) | difference between non-responders and responders in biodistribution in muscle, blood, lung, skin, heart and brain ([2]; ex vivo biodistribution, 80min post-injection, gamma counter, 5 animals) | metabolism of parent tracer in plasma [3] | tissue uptake ([4]; Control group (isotype IgG), n = 10 mice/group) [%ID/g] | tissue uptake ([4]; Treatment non-responders (TNR)) [%ID/g] | tissue uptake ([4]; Treatment responsive tumours (TR), αPD1 + αCTLA4) [%ID/g] | tissue uptake ([4]; Treatment responsive tumours (TR), αPD1) [%ID/g]
1 | {NOTA}-RTCESASHKFEGPCLRDSNCANVCKTEGFHGGKCKGLRRRCFCTKHC (disulfide 3-47, 14-34, 20-41, 24-43) [NOTA-KCNA3P] | 50 |  |  |  |  |  |  |  |  | 
2 | {NOTA}-RTCESASHKFEGPCLRDSNCANVCKTEGFHGGKCKGLRRRCFCTKHC (disulfide 3-47, 14-34, 20-41, 24-43) [[^18F]AlF-NOTA-KCNA3P] |  | rapid | relatively low | excretion via the kidneys and hepatobiliary routes | no difference | less than 30% | 0.51 ± 0.19 | 0.53 ± 0.2 | 1.3 ± 0.36 | 0.87 ± 0.15
